Source: US20260198497A1, “A BENZENE RING-SUBSTITUTED PYRIMIDINECARBOXYLIC ACID COMPOUND, PREPARATION METHOD THEREFOR, HERBICIDAL COMPOSITION AND APPLICATION THEREOF” (QINGDAO KINGAGROOT CHEMICAL COMPOUND CO., LTD., priority 2023, published 2026)
Where two headings read alike, the source gives them in different places.

Assays:
Chinese cabbage = test: Post-emergence test, crop safety; conditions: in vivo, 3 weeks
Source text: (§1) The criteria for activity levels of plant damage (i.e., growth control rate) are as follows: • Level 9: completely dead; • Level 8: growth control rate is greater than or equal to 90% and less than 100%; • Level 7: growth control rate is greater than or equal to 80% and less than 90%; • Level 6: growth control rate is greater than or equal to 70% and less than 80%; • Level 5: growth control rate is greater than or equal to 50% and less than 70%; • Level 4: growth control rate is greater than or equal to 30% and less than 50%; • Level 3: growth control rate is greater than or equal to 20% and less than 30%; • Level 2: growth control rate is greater than or equal to 10% and less than 20%; • Level 1: growth control rate is less than 10%; • Level 0: no effect.
(§2) The above growth control rates are fresh weight control rates.
(§3) Monocotyledonous and dicotyledonous weed seeds (Descurainia sophia, Capsella bursa-pastoris, Abutilon theophrasti, Galium spurium, Stellaria media, Lithospermum arvense, Rorippa indica, Alopecurus aequalis, Alopecurus japonicus, Eleusine indica, Beckmannia syzigachne, Sclerochloa dura, Erigeron canadensis, Phleum paniculatum, Veronica, Bromus japonicus, Aegilops tauschii, Phalaris arundinacea, Amaranthus retroflexus, Chenopodium, Commelina communis, Cichorium endivia, Convolvulus arvensis, Cirsium arvense, Solanum nigrum, Acalypha australis, Digitaria sanguinalis, Echinochloa crusgalli, Setaria viridis, Setaria pumila, Leptochloa chinensis, Monochoria vaginalis, Sagittaria trifolia, Schoenoplectiella juncoides, Cyperus rotundus, Cyperus iria, Cyperus difformis, Fimbristylis, Portulaca oleracea, Xanthium sibiricum, Ipomoea nil, Eschenbachia japonica, etc.) and major crop seeds (wheat, maize, paddy rice, soybean, cotton, oilseed rape, millet, sorghum, potato, sesame, castor plant, Chinese cabbage, radish, etc.) were placed in plastic pots filled with soil and then covered with 0.5-2 cm of soil to allow them to grow in a favorable greenhouse environment. Two weeks after sowing, the test plants were treated at the stage of 2-3 leaves. The test compounds of the present invention were individually dissolved with acetone, then added with Tween® 80, with 1.5 L/ha of methyl oleate emulsifiable concentrate as a synergist, diluted into solution of a certain concentration using a certain amount of water, and sprayed to plants using a spray tower. After drug application, the experimental results on weeds were collected after 3 weeks of cultivation in a greenhouse. The compounds were applied at 120, 60, 30, and 15 g a.i./ha in triplicate, and the results were averaged.

Maize = test: Post-emergence test, crop safety; conditions: in vivo, 3 weeks
Source text: as §1, §2, §3

Wheat = test: Post-emergence test, crop safety; conditions: in vivo, 3 weeks
Source text: as §1, §2, §3

Paddy rice = test: Post-emergence test, crop safety; conditions: in vivo, 3 weeks
Source text: as §1, §2, §3

Oilseed rape = test: Post-emergence test, crop safety; conditions: in vivo, 3 weeks
Source text: as §1, §2, §3

Radish = test: Post-emergence test, crop safety; conditions: in vivo, 3 weeks
Source text: as §1, §2, §3

Bidens tripartita = test: Control effect evaluation on weeds in paddy fields; assay type: in vivo; conditions: paddy pot, 14th day after treatment, seeds resistant to pyrazosulfuron-ethyl
Source text: as §1, §2
(§4) After paddy field soil was loaded into a 1/1,000,000 ha pot, the seeds of Monochoria vaginalis, Pontederia korsakowii and Bidens tripartita were sowed and gently covered with soil, then left to stand in a greenhouse with water storage of 0.5-1 cm deep. The tuber of Sagittaria trifolia was planted on the next day or 2 days later. The water storage was kept at a depth of 3-4 cm thereafter. When the Monochoria vaginalis, Pontederia korsakowii and Bidens tripartita reached their 0.5-leaf stages and the Sagittaria trifolia reached the primary leaf stage, WP or SC aqueous dilutions of the compounds of the present invention formulated according to customary formulation methods were homogeneously dripped for treatment to the specified effective amount using pipettes.
(§5) The effects were evaluated according to the above-mentioned criteria for activity levels.

Pontederia korsakowii = test: Control effect evaluation on weeds in paddy fields; assay type: in vivo; conditions: paddy pot, 14th day after treatment, seeds resistant to pyrazosulfuron-ethyl
Source text: as §1, §2, §4, §5

Monochoria vaginalis = test: Control effect evaluation on weeds in paddy fields; assay type: in vivo; conditions: paddy pot, 14th day after treatment, seeds resistant to pyrazosulfuron-ethyl
Source text: as §1, §2, §4, §5

[1] = system: paddy rice (japonica rice); conditions: in vivo
Source text: as §1, §2
In addition, after being loaded into the 1/1,000,000 ha pot, the paddy field soil was leveled to keep the water storage at a depth of 3-4 cm. The paddy rice (japonica rice) at 3-leaf stage was transplanted at a transplanting depth of 3 cm on the next day. The compounds of the present invention were treated in the same manner as above on the 5th day after the transplantation.
as §5

Veronica = test: Post-emergence test on weeds; assay type: in vivo; design: key: 0 = no effect, 9 = completely dead (levels by growth control rate); conditions: 30 g a.i./ha, 3 weeks after application
Source text: as §1, §2, §3

Euphorbia helioscopia = test: Activity assay of compositions, post-emergence spray of stems and leaves; assay type: in vivo; conditions: 21 days
Source text: The required active ingredient B was purchased from a reagent company or a technical material manufacturer or synthesized by a conventional method. The active ingredient A was Compound 74 in Table 1. The technical materials were all dissolved with acetone solvents and diluted with aqueous solution of 0.1% Tween® 80 emulsifier, which should be used immediately after dilution.
Weeds were cultivated by a pot culture method. […] Weed seeds with plump and uniform grains were selected, soaked in lukewarm water at 25° C. for 6 hours, and accelerated to germinate in a 28° C. biochemical incubator (in darkness). The weed seeds that had just germinated were evenly placed on the surface of the soil and then covered with 0.5-1 cm soil according to the sizes of seeds.
The weeds were cultured in a controllable sunlight greenhouse at 20-30° C., in natural light, and with relative humidity of 57%-72%. The soil was loam with an organic matter content of 1.63%, a pH value of 7.1, alkali-hydrolyzable nitrogen of 84.3 mg/kg, rapidly available phosphorus of 38.5 mg/kg, and rapidly available potassium of 82.1 mg/kg.
Each treatment was repeated 4 times for 3 pots. Each pot was seeded with 20 weed seeds.
The drugs were applied once in total in the experiment. When at the stage of 1.5-2 leaves, the weeds were thinned out to maintain 10 strains per pot. Thirty strains were kept in each treatment and then continued to be cultured until the Erigeron canadensis reached 10 cm tall and other weeds in their 3-4 leaf stage for further treatment.
The well-cultured test materials were evenly placed on a 0.5 m^2 platform and foliage-sprayed by the 3WP-2000-type walking spray tower at a dosage of […] and a spray pressure of 0.3 MPa. After all the drug solution was sprayed, the air valve was closed. And 30 seconds later, the door of the spray tower was opened, and the nutritional bowl was taken out. Next, the air valve was opened, and the spray tube was cleaned by spraying 50 ml of water. The test materials were transferred to and routinely cultured in a greenhouse after the treatment.
A method for investigating absolute numbers was employed. The whole seedlings of the survival weeds were cut along the soil surface with a blade, and the fresh weight of the weeds was weighed by an analytical balance. For dead weeds, the fresh weight thereof was considered zero.
The investigation was performed 21 days after the treatment for once in total.
The theoretical fresh weight inhibition rate of a mixed combination of each treatment was calculated by the Gowing method (E0=X+Y−X*Y/100). Then compared with the measured inhibition rate (E), the type of the combined action of the combination of the two on weeds was evaluated, which was a synergistic effect when E−E0>10; an antagonistic effect when E−E0<−10%; an additional effect when −10≤E−E0≤[…]. An optimal ratio was determined according to factors such as the actual control effects, characteristics of herbicides, balance of the formulation, etc. In the formula, X represents the fresh weight inhibition rate of the active ingredient A in a dosage of P; Y represents the fresh weight inhibition rate of the active ingredient B in a dosage of Q. The statistical results are shown in Table 5 below.

SMILES	activity level of plant damage (growth control rate), Chinese cabbage (Chinese cabbage)	activity level of plant damage (growth control rate), Maize (Maize)	activity level of plant damage (growth control rate), Wheat (Wheat)	activity level of plant damage (growth control rate), Paddy rice (Paddy rice)	activity level of plant damage (growth control rate), Oilseed rape (Oilseed rape)	activity level of plant damage (growth control rate), Radish (Radish)	activity level, Bidens tripartita (Bidens tripartita; 75 g a.i./ha)	activity level, Pontederia korsakowii (Pontederia korsakowii; 75 g a.i./ha)	activity level, Monochoria vaginalis (Monochoria vaginalis; 75 g a.i./ha)	activity level, Paddy rice ([1]; japonica, paddy rice, 21 days)	activity level of plant damage (growth control rate), Veronica (Veronica)	Control effect of B applied alone in a corresponding dose (%) (Euphorbia helioscopia; B 15 g a.i./ha)	further results
COc1c(N)nc(-c2ccc(C(F)(F)F)c(OC)c2F)nc1C(=O)OCC(F)(F)F [Compound 62]	0	0	0	0	0	0	9	9	9	0	9	–	–
COc1c(N)nc(-c2ccc(C(F)(F)F)c(OC)c2F)nc1C(=O)ON=C(C)C [Compound 106]	0	0	0	0	0	0	9	9	9	0	9	–	–
COc1c(N)nc(-c2ccc(C(F)(F)F)c(OC)c2F)nc1C(=O)OC1CC1 [Compound 116]	0	0	0	0	0	0	9	9	9	0	9	–	–
CCOC(=O)c1cnn(C)c1S(=O)(=O)NC(=O)Nc1nc(OC)cc(OC)n1 [pyrazosulfuron-ethyl, reference compound]	–	–	–	–	–	–	–	–	–	–	–	–	activity level, Bidens tripartita (Bidens tripartita; 30 g a.i./ha): 4 (Level 4: growth control rate is greater than or equal to 30% and less than 50%); activity level, Pontederia korsakowii (Pontederia korsakowii; 30 g a.i./ha): 2 (Level 2: growth control rate is greater than or equal to 10% and less than 20%); activity level, Monochoria vaginalis (Monochoria vaginalis; 30 g a.i./ha): 1 (Level 1: growth control rate is less than 10%)
CCn1ncc(C(=O)c2ccc(S(C)(=O)=O)c(COCC(F)(F)F)c2Cl)c1OC(=O)c1cn(C)nc1C [Fenpyrazone, fenpyrazone]	–	–	–	–	–	–	–	–	–	–	–	34.3	Control effect of B applied alone in a corresponding dose (%) (Euphorbia helioscopia; B 30 g a.i./ha): 60.0%
CCC[S@@+]([O-])c1c(C(F)(F)F)ccc(C(=O)Nc2nnc(C)o2)c1F	–	–	–	–	–	–	–	–	–	–	–	34.3	Control effect of B applied alone in a corresponding dose (%) (Euphorbia helioscopia; B 30 g a.i./ha): 55.4%
COc1c(N)nc(-c2ccc(Br)c(OC)c2F)nc1C(=O)SC [Compound 221]	–	–	0	0	–	–	–	–	–	–	9	–	–
Cn1[nH]c(C2CC2)c(C(=O)c2ccc(C(F)(F)F)c(N3CCCCC3=O)c2Cl)c1=O [Cypyrafluone, cypyrafluone]	–	–	–	–	–	–	–	–	–	–	–	34.7	Control effect of B applied alone in a corresponding dose (%) (Euphorbia helioscopia; B 30 g a.i./ha): 55.2%
COC(=O)c1nc(-c2ccc(C(F)(F)F)c(OC)c2Cl)nc(N)c1OC [Compound 2]	–	–	–	–	–	–	9	9	9	–	9	–	activity level, Paddy rice [1]: 0
COC(=O)c1nc(-c2ccc(C(F)(F)F)c(OC)c2F)nc(N)c1OC [Compound 3]	0	0	0	0	0	0	9	9	9	0	9	–	–
Cc1nn(C)cc1C(=O)Oc1c(C(=O)c2ccc(C(F)(F)F)cc2S(C)(=O)=O)c(C)nn1C [Bipyrazone, bipyrazone]	–	–	–	–	–	–	–	–	–	–	–	55.8	Control effect of B applied alone in a corresponding dose (%) (Euphorbia helioscopia; B 7.5 g a.i./ha): 37.1%
CCOC(=O)c1nc(-c2ccc(C(F)(F)F)c(OC)c2F)nc(N)c1OC [Compound 24]	0	0	0	0	0	0	9	9	9	0	9	–	–
COC(=O)c1nc(-c2ccc(C(F)F)c(OC)c2F)nc(N)c1OC [Compound 4]	–	–	–	–	–	–	9	9	9	–	9	–	activity level, Paddy rice [1]: 0
